Activity calls are given as the source filed them.
biological target: T1, Prostaglandin G/H synthase 1 (Homo sapiens, UniProt P23219); experiment: biochemical; type: cell-based, COS; conditions: not given
T1 sequence (P23219 whole entry): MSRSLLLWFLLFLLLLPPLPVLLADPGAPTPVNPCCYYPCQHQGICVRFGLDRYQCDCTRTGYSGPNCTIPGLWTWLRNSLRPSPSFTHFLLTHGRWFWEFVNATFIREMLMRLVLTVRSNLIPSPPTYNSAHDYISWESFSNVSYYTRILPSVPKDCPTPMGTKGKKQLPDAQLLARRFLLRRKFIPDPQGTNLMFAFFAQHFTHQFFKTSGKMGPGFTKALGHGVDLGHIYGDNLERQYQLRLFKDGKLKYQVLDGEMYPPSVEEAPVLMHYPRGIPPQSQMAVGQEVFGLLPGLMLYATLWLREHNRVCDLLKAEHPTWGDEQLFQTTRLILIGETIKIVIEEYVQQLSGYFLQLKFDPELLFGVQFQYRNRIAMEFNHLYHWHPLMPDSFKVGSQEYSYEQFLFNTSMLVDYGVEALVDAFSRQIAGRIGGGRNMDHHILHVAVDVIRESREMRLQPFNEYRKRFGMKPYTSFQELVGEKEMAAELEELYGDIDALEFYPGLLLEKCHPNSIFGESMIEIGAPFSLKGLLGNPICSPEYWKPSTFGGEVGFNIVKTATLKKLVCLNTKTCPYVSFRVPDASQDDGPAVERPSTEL

Row | SMILES | IC50
1 | Cc1c(-c2ccc(S(C)(=O)=O)cc2)nc(NC2CCCCC2)nc1C(F)(F)F | > 100000 nM
2 | CS(=O)(=O)c1ccc(-c2cc(N)nc(NC3CCCCC3)n2)cc1 | > 100000 nM
3 | CCCNc1nc(-c2ccc(S(C)(=O)=O)cc2)cc(C(F)(F)F)n1 | > 100000 nM
4 | NS(=O)(=O)c1ccc(-c2cc(C(F)(F)F)nc(NC3CCCCC3)n2)cc1 | 167 nM
5 | Cc1cnc(NC2CCCCC2)nc1-c1ccc(S(C)(=O)=O)cc1 | > 100000 nM
6 | Cc1ccc(N(C)c2nc(-c3ccc(S(C)(=O)=O)cc3)cc(C(F)(F)F)n2)cc1 | > 74200 nM

test system: Rattus norvegicus; experiment: Antihyperalgesic activity against chronic constriction nerve injury-induced hyperalgesia in rat assessed as reversal of decrease in the paw withdrawal threshold at 5 mg/kg, po bid for 10 days measured on day 10 postdose; type: functional, organism-based; parameters: dose 5 mg/kg; conditions: not given

Row | SMILES | Activity
7 | CCCCOc1nc(-c2ccc(S(C)(=O)=O)cc2)cc(C(F)(F)F)n1 | Active

biological target: T2, Prostaglandin G/H synthase 2 (Homo sapiens, UniProt P35354); experiment: biochemical; type: cell-based, Sf9; conditions: not given
T2 sequence (P35354 whole entry): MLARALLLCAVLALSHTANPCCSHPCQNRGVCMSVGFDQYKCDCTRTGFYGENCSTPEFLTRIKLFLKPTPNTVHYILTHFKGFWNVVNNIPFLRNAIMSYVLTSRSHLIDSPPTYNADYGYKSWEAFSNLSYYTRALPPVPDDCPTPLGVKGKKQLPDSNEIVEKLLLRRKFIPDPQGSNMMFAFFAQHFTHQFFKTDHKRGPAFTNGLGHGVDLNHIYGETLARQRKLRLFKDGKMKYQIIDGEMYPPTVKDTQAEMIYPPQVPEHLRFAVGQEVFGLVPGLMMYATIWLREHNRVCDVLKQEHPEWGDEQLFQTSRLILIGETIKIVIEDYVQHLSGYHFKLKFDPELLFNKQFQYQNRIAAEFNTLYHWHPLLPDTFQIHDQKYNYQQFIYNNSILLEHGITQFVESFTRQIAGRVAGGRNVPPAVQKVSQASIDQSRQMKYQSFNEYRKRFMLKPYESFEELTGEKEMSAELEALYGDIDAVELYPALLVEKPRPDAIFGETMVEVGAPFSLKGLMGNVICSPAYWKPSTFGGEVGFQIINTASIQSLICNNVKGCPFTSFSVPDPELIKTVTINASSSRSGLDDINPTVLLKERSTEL

Row | SMILES | IC50
8 | CS(=O)(=O)c1ccc(-c2cc(C(F)(F)F)nc(OC3CCCCCC3)n2)cc1 | < 10 nM
9 | CC(C)Oc1nc(-c2ccc(S(C)(=O)=O)cc2)cc(C(F)(F)F)n1 | 63 nM
10 | CS(=O)(=O)c1ccc(-c2cc(C(F)(F)F)nc(OCC3CCCCCC3)n2)cc1 | 1030 nM
11 | CS(=O)(=O)c1ccc(-c2cc(C(F)(F)F)nc(OC3CCCCCCC3)n2)cc1 | < 10 nM
12 | CS(=O)(=O)c1ccc(-c2cc(C(F)(F)F)nc(OCC3CCCCC3)n2)cc1 | 45 nM
13 | Cc1cccc(Oc2nc(-c3ccc(S(C)(=O)=O)cc3)cc(C(F)(F)F)n2)c1 | < 10 nM
14 | CCCCOc1nc(-c2ccc(S(C)(=O)=O)cc2)cc(C(F)(F)F)n1 | 21.5 nM
15 | CS(=O)(=O)c1ccc(-c2cc(C(F)(F)F)nc(OC3CCC3)n2)cc1 | < 10 nM
16 | CC(C)(C)Oc1nc(-c2ccc(S(C)(=O)=O)cc2)cc(C(F)(F)F)n1 | 33 nM
17 | CS(=O)(=O)c1ccc(-c2cc(C(F)(F)F)nc(OC3CCCC3)n2)cc1 | < 10 nM

biological target: T1, Prostaglandin G/H synthase 1; experiment: biochemical; type: cell-based, Sf9; conditions: not given; remark: another data set of the same source

Row | SMILES | IC50
18 | CS(=O)(=O)c1ccc(-c2cc(C(F)(F)F)nc(OC3CCCCCC3)n2)cc1 | 1920 nM
19 | CC(C)Oc1nc(-c2ccc(S(C)(=O)=O)cc2)cc(C(F)(F)F)n1 | 52600 nM
20 | CS(=O)(=O)c1ccc(-c2cc(C(F)(F)F)nc(OC3CCCCCCC3)n2)cc1 | 3000 nM
21 | CS(=O)(=O)c1ccc(-c2cc(C(F)(F)F)nc(OCC3CCCCC3)n2)cc1 | > 100000 nM
22 | Cc1cccc(Oc2nc(-c3ccc(S(C)(=O)=O)cc3)cc(C(F)(F)F)n2)c1 | 4360 nM
23 | CS(=O)(=O)c1ccc(-c2cc(C(F)(F)F)nc(OC3CCC3)n2)cc1 | 19000 nM
24 | CC(C)(C)Oc1nc(-c2ccc(S(C)(=O)=O)cc2)cc(C(F)(F)F)n1 | 52000 nM
25 | CS(=O)(=O)c1ccc(-c2cc(C(F)(F)F)nc(OC3CCCC3)n2)cc1 | 4040 nM

test system: not listed separately; experiment: in vivo; conditions: rat, brain / blood
Description: Ratio of drug level in brain to blood in rat

Row | SMILES | Kp
26 | CS(=O)(=O)c1ccc(C2=C(c3ccccc3)C(=O)OC2)cc1 [ROFECOXIB] | 0.8
27 | CCCCOc1nc(-c2ccc(S(C)(=O)=O)cc2)cc(C(F)(F)F)n1 | 3.2

test system: not listed separately; experiment: Volume of distribution at steady state in rat at 1 mg/kg/hr, iv; type: ADME, organism-based; parameters: route intravenous; conditions: in vivo, read-out: Vdss

Row | SMILES | Vd
28 | CCCCOc1nc(-c2ccc(S(C)(=O)=O)cc2)cc(C(F)(F)F)n1 | 5.7 L/kg

biological target: T1, Prostaglandin G/H synthase 1; experiment: not given; type: tissue-based, Blood; conditions: not given

Row | SMILES | IC50
29 | Cc1ccc(-c2ncc(Cl)cc2-c2ccc(S(C)(=O)=O)cc2)cn1 [ETORICOXIB] | > 100000 nM

test system: not listed separately; experiment: Terminal half life in rat at 1 mg/kg/hr, iv; type: ADME, organism-based; parameters: route intravenous; conditions: in vivo, read-out: beta t1/2 (converted)

Row | SMILES | half-life
30 | CCCCOc1nc(-c2ccc(S(C)(=O)=O)cc2)cc(C(F)(F)F)n1 | 4.2 h

species on record: Rattus norvegicus; experiment: Analgesic activity against Freund's adjuvant-induced pain in rat model of acute inflammatory pain assessed as reversal of adjuvant hypersensitivity; type: functional; conditions: not given

Row | SMILES | ED50
31 | CCCCOc1nc(-c2ccc(S(C)(=O)=O)cc2)cc(C(F)(F)F)n1 | 2.1 mg/kg

test system: Rattus norvegicus; experiment: Antihyperalgesic activity against chronic constriction nerve injury-induced hyperalgesia in rat assessed as reversal of decrease in the paw withdrawal threshold at 5 mg/kg, po bid for 10 days measured on day 3 postdose; type: functional, organism-based; parameters: dose 5 mg/kg; conditions: not given

Row | SMILES | Activity
32 | CCCCOc1nc(-c2ccc(S(C)(=O)=O)cc2)cc(C(F)(F)F)n1 | Active

test system: Rattus norvegicus; experiment: Antihyperalgesic activity against chronic constriction nerve injury-induced hyperalgesia in rat assessed as reversal of decrease in the paw withdrawal threshold at 5 mg/kg, po bid for 10 days measured on day 7 postdose; type: functional, organism-based; parameters: dose 5 mg/kg; conditions: not given

Row | SMILES | Activity
33 | CCCCOc1nc(-c2ccc(S(C)(=O)=O)cc2)cc(C(F)(F)F)n1 | Active

biological target: T2, Prostaglandin G/H synthase 2; experiment: not given; type: cell-based, COS; conditions: not given

Row | SMILES | IC50
34 | Cc1c(-c2ccc(S(C)(=O)=O)cc2)nc(NC2CCCCC2)nc1C(F)(F)F | > 10000 nM
35 | CS(=O)(=O)c1ccc(-c2cc(N)nc(NC3CCCCC3)n2)cc1 | > 10000 nM
36 | CCCNc1nc(-c2ccc(S(C)(=O)=O)cc2)cc(C(F)(F)F)n1 | 5 nM
37 | NS(=O)(=O)c1ccc(-c2cc(C(F)(F)F)nc(NC3CCCCC3)n2)cc1 | 2.4 nM
38 | Cc1cnc(NC2CCCCC2)nc1-c1ccc(S(C)(=O)=O)cc1 | > 10000 nM
39 | Cc1ccc(N(C)c2nc(-c3ccc(S(C)(=O)=O)cc3)cc(C(F)(F)F)n2)cc1 | 3 nM

test system: not listed separately; experiment: Oral bioavailability in rat at 1 mg/kg; type: ADME, organism-based; conditions: in vivo

Row | SMILES | bioavailability
40 | CCCCOc1nc(-c2ccc(S(C)(=O)=O)cc2)cc(C(F)(F)F)n1 | 84%

biological target: T2, Prostaglandin G/H synthase 2; experiment: not given; type: tissue-based, Blood; conditions: not given; remark: another data set of the same source

Row | SMILES | IC50
41 | CCCCOc1nc(-c2ccc(S(C)(=O)=O)cc2)cc(C(F)(F)F)n1 | 158 nM

test system: not listed separately; experiment: Selectivity ratio of IC50 for human COX1 to IC50 for human COX2 expressed in baculovirus-infected SF9 cells; conditions: not given

Row | SMILES | Ratio IC50
42 | CS(=O)(=O)c1ccc(-c2cc(C(F)(F)F)nc(OC3CCCCCC3)n2)cc1 | > 192
43 | Cc1ccc(Oc2nc(-c3ccc(S(C)(=O)=O)cc3)cc(C(F)(F)F)n2)cc1 | > 375
44 | CC(C)Oc1nc(-c2ccc(S(C)(=O)=O)cc2)cc(C(F)(F)F)n1 | 834
45 | CS(=O)(=O)c1ccc(-c2cc(C(F)(F)F)nc(OCC3CCCCCC3)n2)cc1 | inactive
46 | CS(=O)(=O)c1ccc(-c2cc(C(F)(F)F)nc(OC3CCCCCCC3)n2)cc1 | > 300
47 | CS(=O)(=O)c1ccc(-c2cc(C(F)(F)F)nc(OCC3CCCCC3)n2)cc1 | > 2220
48 | Cc1cccc(Oc2nc(-c3ccc(S(C)(=O)=O)cc3)cc(C(F)(F)F)n2)c1 | > 436
49 | CS(=O)(=O)c1ccc(-c2cc(C(F)(F)F)nc(OC3CCC3)n2)cc1 | > 1900
50 | CC(C)(C)Oc1nc(-c2ccc(S(C)(=O)=O)cc2)cc(C(F)(F)F)n1 | 1580
51 | CS(=O)(=O)c1ccc(-c2cc(C(F)(F)F)nc(OC3CCCC3)n2)cc1 | > 404

test system: not listed separately; experiment: Blood clearance in rat at 1 mg/kg/hr, iv; type: ADME, organism-based; parameters: route intravenous; conditions: whole blood

Row | SMILES | clearance
52 | CCCCOc1nc(-c2ccc(S(C)(=O)=O)cc2)cc(C(F)(F)F)n1 | 24 mL/min/kg

test system: COS; experiment: Selectivity ratio of IC50 for human COX1 to IC50 for human COX2 expressed in african green monkey COS cells; type: cell-based; conditions: not given

Row | SMILES | Ratio IC50
53 | Cc1c(-c2ccc(S(C)(=O)=O)cc2)nc(NC2CCCCC2)nc1C(F)(F)F | inactive
54 | CS(=O)(=O)c1ccc(-c2cc(N)nc(NC3CCCCC3)n2)cc1 | inactive
55 | CCCNc1nc(-c2ccc(S(C)(=O)=O)cc2)cc(C(F)(F)F)n1 | > 2000
56 | NS(=O)(=O)c1ccc(-c2cc(C(F)(F)F)nc(NC3CCCCC3)n2)cc1 | 69.5
57 | Cc1cnc(NC2CCCCC2)nc1-c1ccc(S(C)(=O)=O)cc1 | inactive
58 | Cc1ccc(N(C)c2nc(-c3ccc(S(C)(=O)=O)cc3)cc(C(F)(F)F)n2)cc1 | > 24700
